Like-named read-outs stand apart in the source and are kept apart here.
Columns and labels:
[1] = test system: orthotopic HT-29 human colon primary tumor; test: Proliferation index (KI-67) in HT-29 primary tumor; format: in vivo, mouse
Description: (§1) HT-29 human colon cancer cells were injected into SCID female mice subcutaneously (s.c.), 3 × 10^6 cells per animal in volume of 200 μL M199 medium per animal, in order to establish tumor for transplantation. After 2 weeks, the mice with palpable tumors were sacrificed by cervical dislocation, and the subcutaneous tumor was dissected out aseptically. Tumor pieces of 2 mm^3 were transplanted orthotopically, under aseptic conditions into anesthetized (narcotic mixture: tiletamine, zolazepam, xylazine, butorphanol) SCID female mice (19-25 g). A small midline incision (0.5 cm) was made and the colorectal part of the intestine was exteriorized. Serosa of the site where the tumor pieces were to be implanted were removed. […]
(§2) One group of mice were treated with free Dau (1 mg/kg body weight) on days 6, 13 and 20 after tumor transplantation. […] Their primary tumors and livers were harvested and weighed, while metastases were counted in other organs.
(§3) The routinely formalin-fixed tumors were dehydrated in a graded series of ethanol, infiltrated with xylene and embedded into paraffin at a temperature not exceeding 60 °C. […] The KI-67-positive tumor cells were counted manually per fields of vision under light microscope (400-fold magnification), and 3 fields of view per tumor were evaluated. Proliferation index was calculated as percentage of KI-67 positive cells from all cells in the field of view. […]

[2] = test system: orthotopic HT-29 human colon carcinoma bearing SCID mice; test: Orthotopic HT-29 human colon tumor model; format: in vivo, mouse; details: orthotopic HT-29 model
Description: (§4) The immunodeficient SCID mice on a C.B.-17 background were bred in specific opportunistic and pathogen free isolator breeding rooms. The breeding isolator was supplied with corn-cob bedding and standard VRF1 rodent chow and with acidified (pH = 3) sterilized distilled water. The mice from the breeding rooms were used for the subcutaneous model of KS and orthotopic model of human colon cancer. They were held in filter-top boxes in the experimental barrier rooms, and every box-opening was performed under a Class 100 laminar-flow hood. The animal housing density was in accordance with the international recommendations. The cage components, corn-cob bedding and food (VRF1 from Special Diet Services) were steam-sterilized in an autoclave (121 °C, 20 min). The animals used in these studies were cared for according to the “Guiding Principles for the Care and Use of Animals” based upon the Helsinki declaration, and they were approved by the local ethical committee. Permission license for breeding and performing experiments with laboratory animals: PEI/001/1738-3/2015 and PEI/001/2574–6/2015.
HT-29 human colon cancer cells were injected into SCID female mice subcutaneously (s.c.), 3 × 10^6 cells per animal in volume of 200 μL M199 medium per animal, in order to establish tumor for transplantation. After 2 weeks, the mice with palpable tumors were sacrificed by cervical dislocation, and the subcutaneous tumor was dissected out aseptically. Tumor pieces of 2 mm^3 were transplanted orthotopically, under aseptic conditions into anesthetized (narcotic mixture: tiletamine, zolazepam, xylazine, butorphanol) SCID female mice (19-25 g). A small midline incision (0.5 cm) was made and the colorectal part of the intestine was exteriorized. Serosa of the site where the tumor pieces were to be implanted were removed. Tumor tissue fragments of HT-29 human colon tumor were implanted on the top of the animal intestine; an 8/0 surgical (polypropylene) suture was used to suture it on the wall of the intestine. The intestine was returned to the abdominal cavity, and the abdominal wall was closed with 4/0 surgical (polyglycolic acid) sutures. The wound was sterilized and the animals were kept in a sterile environment. On the next day, no sign of pain and/or stress of the mice was observed. The treatments started 6 days after tumor transplantation by i.p. administration of the compounds dissolved in distilled water for injection. 8 mice per group were used.
One group of mice were treated with free Dau (1 mg/kg body weight) on days 6, 13 and 20 after tumor transplantation. Animal groups treated with compounds 1 and 2 were administered with a dose of 10 mg/kg Dau content (33.8 and 33.5 mg/kg of each conjugate, respectively) on days 6, 8, 10, 13, 17, 20 and 24 after tumor transplantation. Control group was treated with sterile water as solvent in 0.2 mL volume per animal. The experiment was terminated on day 27 after tumor transplantation (day 22 of treatment). Daunorubicin treated group was terminated on day 24 after tumor transplantation (day 19 of treatment) due to significant weight loss of the animals. The mice from all groups were sacrificed by cervical dislocation. Their primary tumors and livers were harvested and weighed, while metastases were counted in other organs.

[3] = test system: subcutaneous Kaposi's sarcoma primary tumor; test: Proliferation index (KI-67) in KS primary tumor; format: in vivo, mouse; details: percentage printed in Fig. 7a
Description: (§5) Kaposi’s sarcoma (KS) cells were injected into SCID female mice (19-24 g) (s.c.), 3 × 10^6 cells per animal in volume of 200 μL M199 medium per animal. Treatment started 35 days after cell inoculation when average tumor volume was 66 mm^3, by i.p. administration. […] Treatment volume was 0.2 mL/animal. Animal weight and tumor volumes were measured initially when the treatment started and at periodic intervals according to the treatment schedule. A digital caliper was used to measure the longest (a) and the shortest diameter (b) of a given tumor. The tumor volume was calculated using the formula V = ab^2 × π/6, whereby a and b represent the measured parameters (length and width). […]
(§6) The routinely formalin-fixed tumors were dehydrated in a graded series of ethanol, infiltrated with xylene and embedded into paraffin at a temperature not exceeding 60 °C. […] The KI-67-positive tumor cells were counted manually per fields of vision under light microscope (400-fold magnification), and 3 fields of view per tumor were evaluated. Proliferation index was calculated as percentage of KI-67 positive cells from all cells in the field of view. The CD31-positive blood vessels were counted manually using light microscope (200-fold magnification), whereby 3 fields of view per tumor were evaluated, and blood vessel density was calculated as number of blood vessels per mm^2.

[4] = test system: subcutaneous Kaposi's sarcoma bearing SCID mice; test: Subcutaneous Kaposi's sarcoma model; format: in vivo, mouse; details: KS s.c. model, free Dau 1 mg/kg 5 treatments
Description: as §4
Kaposi’s sarcoma (KS) cells were injected into SCID female mice (19-24 g) (s.c.), 3 × 10^6 cells per animal in volume of 200 μL M199 medium per animal. Treatment started 35 days after cell inoculation when average tumor volume was 66 mm^3, by i.p. administration. […] Treatment volume was 0.2 mL/animal. Animal weight and tumor volumes were measured initially when the treatment started and at periodic intervals according to the treatment schedule. A digital caliper was used to measure the longest (a) and the shortest diameter (b) of a given tumor. The tumor volume was calculated using the formula V = ab^2 × π/6, whereby a and b represent the measured parameters (length and width). The experiment was terminated on day 70 after tumor transplantation (day 36 of treatment). The mice from all groups were sacrificed by cervical dislocation. Their primary tumors and livers were harvested and weighed.

[5] = MTT antiproliferative assay on MRC-5 cells; format: cell-based; details: human, MRC-5 cells (normal, non-cancerous human fibroblasts), 72 h continuous treatment, average ± SD
Description: (§7) KS (Kaposi’s sarcoma) derived from human Kaposi sarcoma and HT-29 (human colorectal adenocarcinoma) cell line obtained from ATCC were cultured in RPMI 1640 medium with glutamine (Roswell Park Memorial Institute Medium, Lonza, Basel, Switzerland), and MRC-5 (normal fibroblast) cells were cultured in DMEM (Dulbecco’s Modified Eagle’s Medium, Lonza). All media were supplemented with 10% heat-inactivated FBS (Fetal Bovine Serum, Euroclone, Milan, Italy), and with 1% penicillin/streptomycin (Sigma-Aldrich). Cells were cultured in sterile T25 or T75 flasks with ventilation cap (Sarstedt, Nümbrecht, Germany) at 37 °C in a humidified atmosphere with 5% CO2.
(§8) For evaluation of in vitro antiproliferative activity of NGR-Dau conjugates and free Dau, cell viability was determined by MTT assay (3-(4,5-dimethylthiazol-2-yl)-2,5-diphenyl-tetrazolium bromide (Sigma Aldrich)). […] The formazan crystals were dissolved in 100 μL of a 1:1 solution of DMSO (Sigma-Aldrich):EtOH (Molar Chemicals) and the absorbance was measured after 15 min at λ = 570 nm by using a microplate reader (Bio-Rad, model 550, Hercules, CA, USA). The IC50 values of the conjugates and free drug were calculated using GraphPad Prism 6 (GraphPad Software, San Diego, CA, USA). […]

[6] = test system: subcutaneous Kaposi's sarcoma primary tumor; test: Vascularization (CD31 blood vessel density) in KS primary tumor; format: in vivo, mouse; details: percentage printed in Fig. 7c
Description: as §5, §6

[7] = test system: CD13(−) HT-29 human colorectal adenocarcinoma cells; test: MTT antiproliferative assay on HT-29 cells; format: cell-based; details: average ± SD
Description: as §7, §8

[8] = test system: orthotopic HT-29 human colon primary tumor; test: Vascularization (CD31 blood vessel density) in HT-29 primary tumor; format: in vivo, mouse; details: percentage printed in Fig. 7d
Description: as §1, §2, §3

[9] = test system: CD13(+) Kaposi's sarcoma cells (KS); test: MTT antiproliferative assay on KS cells; format: cell-based; details: Homo sapiens, 24 h treatment followed by 48 h incubation in drug free medium, average ± SD
Description: as §7, §8

COc1cccc2c1C(=O)c1c(O)c3c(c(O)c1C2=O)C[C@@](O)(C(C)=O)C[C@@H]3O[C@H]1C[C@H](N)[C@H](O)[C@H](C)O1 [Dau, daunorubicin]
proliferation index, percentage of control ([1]; percentage printed in Fig. 7b): 88.8% | inhibition of proliferation (KI-67 proliferation index) compared to control ([1]; significant): 11.2% | inhibition of tumor weight compared to control ([2]; conjugates 10 mg/kg Dau content 7 treatments (day 27), free Dau 1 mg/kg 3 treatments (day 24)): 67.7% | animal body weight during treatment ([2]; conjugates 10 mg/kg Dau content i.p. 7 treatments, free Dau 1 mg/kg 3 treatments, days after tumor transplantation, 8 animals per group): significantly decreased body weight from day 17 | liver/body weight ratio, percentage of control ([2]; conjugates day 27, Dau day 24): 85.5% | animals with metastases near the primary tumor, out of 8 animals ([2]; control 7 out of 8): 1 | decrease of liver/body weight ratio in comparison to control ([2]; free Dau 1 mg/kg 3 treatments, p < 0.05): 14.5% | inhibition of weight of metastases in comparison to control ([2]; metastases near the primary tumor): 78.3% | tumor weight, percentage of control ([2]; percentage printed in Fig. 6b, conjugates day 27, Dau day 24): 32.3% | weight of metastases, percentage of control ([2]; percentage printed in Fig. 6d): 21.7% | proliferation index, percentage of control [3]: 98.2% | decrease of animal body weight at end of experiment ([4]; conjugates 10 mg/kg Dau content i.p. 11 treatments, day 70 after cell inoculation, 5 animals per group): 16.7% | inhibition of tumor volume compared to control ([4]; conjugates 10 mg/kg Dau content i.p. 11 treatments, end of experiment (day 70)): 18.6% | decrease of liver/body weight ratio in comparison to control ([4]; day 70, p < 0.05): 12.3% | IC50 at 72 h [5]: 250 ± 60 nM | blood vessel density, percentage of control [6]: 81.4% | IC50 ([7]; 24 h treatment followed by 48 h incubation in drug free medium, read-out: HT-29 (24 h) IC50): 90 ± 10 nM | IC50 ([7]; 72 h continuous treatment, read-out: HT-29 (72 h) IC50): 100 ± 10 nM | blood vessel density, percentage of control [8]: 62.0% | IC50 [9]: 100 ± 10 nM

— publication PMC7297862, “In Vivo Tumor Growth Inhibition and Antiangiogenic Effect of Cyclic NGR Peptide-Daunorubicin Conjugates Developed for Targeted Drug Delivery” (Pathology Oncology Research, 2019)
